{
  "source": "patent US6214859A",
  "about": "“Ethylamine derivatives” (Fujimoto Brothers Co., Ltd., priority 1997, dated 2001)",
  "key": {"5-HT1 receptor": {"target": "5-HT1 receptor", "assay": "Affinity to 5-HT1 receptor", "design": "species or system rat", "conditions": "read-out: Affinity to 5-HT1 receptor (MIC50; mole concentration for 50% inhibition of binding); 2 nM ^3H-5-HT"}, "[1]": {"test_system": "noradrenaline release, locus coeruleus", "assay": "Release of biogenic amines from brain tissue: noradrenaline, locus coeruleus", "type": "in vivo, Wistar rats"}, "α2 receptor": {"target": "α2 receptor", "assay": "Affinity to α2 receptor", "design": "species or system rat", "conditions": "read-out: Affinity to α2 receptor (MIC50; mole concentration for 50% inhibition of binding); 0.7 nM ^3H-rauwolscine"}, "serotonin release, raphe": {"test_system": "serotonin release, raphe", "assay": "Release of biogenic amines from brain tissue: serotonin, raphe", "type": "in vivo, Wistar rats"}, "5-HT2 receptor": {"target": "T1, 5-HT2 receptor (Rattus norvegicus, UniProt P14842)", "T1 construct": "The precipitate was used as the solution of receptor; from tissue; host or cells: rat brain (whole) crude membranes", "T1 sequence (P14842 whole entry)": "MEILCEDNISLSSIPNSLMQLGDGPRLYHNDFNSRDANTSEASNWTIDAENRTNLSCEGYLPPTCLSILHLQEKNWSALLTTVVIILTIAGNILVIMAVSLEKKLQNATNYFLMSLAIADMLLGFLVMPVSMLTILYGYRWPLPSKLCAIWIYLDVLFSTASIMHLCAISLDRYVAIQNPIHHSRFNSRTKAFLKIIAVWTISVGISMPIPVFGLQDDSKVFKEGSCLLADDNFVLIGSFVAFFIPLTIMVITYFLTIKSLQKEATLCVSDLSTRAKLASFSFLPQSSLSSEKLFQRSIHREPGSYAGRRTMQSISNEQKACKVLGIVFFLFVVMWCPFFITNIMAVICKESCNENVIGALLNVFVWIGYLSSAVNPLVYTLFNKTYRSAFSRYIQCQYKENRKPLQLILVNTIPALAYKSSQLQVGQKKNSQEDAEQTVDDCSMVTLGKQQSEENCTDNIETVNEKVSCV", "assay": "Affinity to 5-HT2 receptor", "type": "binding"}, "D2 receptor": {"target": "D2 receptor", "assay": "Affinity to D2 receptor", "design": "species or system rat", "conditions": "read-out: Affinity to D2 receptor (MIC50; mole concentration for 50% inhibition of binding); 2.0 nM spiperone"}, "[2]": {"test_system": "dopamine release, substantia nigra", "assay": "Release of biogenic amines from brain tissue: dopamine, substantia nigra", "type": "in vivo, Wistar rats"}, "[3]": {"test_system": "dopamine release, tuberculum olfactorium", "assay": "Release of biogenic amines from brain tissue: dopamine, tuberculum olfactorium", "type": "in vivo, Wistar rats"}, "[4]": {"test_system": "monoamine release from synaptosomes", "assay": "Releasing effect of monoamines in synaptosomes of the rat brain", "conditions": "compound 5×10^-5 M with tyramine 10^-6 M (FIG. 9)", "procedure": "Synaptosomes were prepared as follows. Fresh striatum (for determination of dopamine) and fresh forebrain (for determination of noradrenaline and serotonin) were removed from listar rats of 8 weeks old (NIPPON S. L. C.). Ten times volumes of ice-cold 0.35 M sucrose (pH 7.4) were added in the brain tissue and homogenized using glass homogenizer with teflon pestle which was revolted by motors. Thereafter the homogenate was centrifuged at 900×g for 10 min at 4° C. and the supernatant was recentrifuged at 11,500×g for 20 min. The pellet was resuspeded in ice-cold buffer. Final concentration of synaptosomes was prepared to 0.6 mg protein/ml. Protein concentration was determined by method described in Journal of Biological Chemistry, 193, 265-275 (1951) and the bovine serum albumin was used as an authentic standard. The release of monoamine from synaptosomes was determined by the following procedure based on the method described in Journal of Pharmacology and Experimental Therapeutics, 241, 27-33 (1987). The solution of 0.6 mg/ml of synaptosomes was preincubated for 5 min at 35° C. under the oxygenated (95% O2 and 5% CO2) condition. Thereafter 25 nM ^3 H-monoamines were added in synaptosomal solution and the solutions were incubated for 5 min at 35° C. […]"}},
  "note": "Several values for one entry are separate records, joined by “and”; a condition that tells them apart may be missing. Equal values may be shown once.",
  "data": [
    {"smiles": "CCCNC(CCC)Cc1c[nH]c2ccccc12.Cl", "note": "(stereo not shown) [Compound No. 20, 1-(Indol-3-yl)-2-propylaminopentane Hydrochloride]", "values": [
      {"measurement": "IC50", "setting": "5-HT1 receptor", "value": 7, "unit": "µM"},
      {"measurement": "Release of noradrenaline, locus coeruleus", "setting": "[1]; 0.005 mg/kg s.c.", "value": "5.3 ± 0.30 nmol/g tissue, for 20 min"},
      {"measurement": "Release of noradrenaline, locus coeruleus", "setting": "[1]; 0.01 mg/kg s.c., Hydrochloride", "value": "4.3 ± 0.10 nmol/g tissue, for 20 min and 2.2 ± 0.15 nmol/g tissue, for 20 min"},
      {"measurement": "Release of noradrenaline, locus coeruleus", "setting": "[1]; 0.05 mg/kg s.c.", "value": "3.2 ± 0.15 nmol/g tissue, for 20 min"},
      {"measurement": "Release of noradrenaline, locus coeruleus", "setting": "[1]; 0.25 mg/kg s.c.", "value": "4.3 ± 0.15 nmol/g tissue, for 20 min"},
      {"measurement": "Release of noradrenaline, locus coeruleus", "setting": "[1]; 1.00 mg/kg s.c.", "value": "4.4 ± 0.25 nmol/g tissue, for 20 min"},
      {"measurement": "Release of noradrenaline, locus coeruleus", "setting": "[1]; 5.00 mg/kg s.c.", "value": "3.5 ± 0.20 nmol/g tissue, for 20 min"},
      {"measurement": "IC50", "setting": "α2 receptor", "value": 0.9, "unit": "µM"},
      {"measurement": "Release of serotonin, raphe", "setting": "serotonin release, raphe; 0.005 mg/kg s.c.", "value": "0.492 ± 0.02 nmol/g tissue, for 20 min"},
      {"measurement": "Release of serotonin, raphe", "setting": "serotonin release, raphe; 0.01 mg/kg s.c., Hydrochloride", "value": "0.961 ± 0.02 nmol/g tissue, for 20 min and 0.938 ± 0.01 nmol/g tissue, for 20 min"},
      {"measurement": "Release of serotonin, raphe", "setting": "serotonin release, raphe; 0.05 mg/kg s.c.", "value": "1.203 ± 0.08 nmol/g tissue, for 20 min"},
      {"measurement": "Release of serotonin, raphe", "setting": "serotonin release, raphe; 0.25 mg/kg s.c.", "value": "0.481 ± 0.05 nmol/g tissue, for 20 min"},
      {"measurement": "Release of serotonin, raphe", "setting": "serotonin release, raphe; 1.00 mg/kg s.c.", "value": "0.355 ± 0.05 nmol/g tissue, for 20 min"},
      {"measurement": "Release of serotonin, raphe", "setting": "serotonin release, raphe; 5.00 mg/kg s.c.", "value": "0.565 ± 0.01 nmol/g tissue, for 20 min"},
      {"measurement": "IC50", "setting": "5-HT2 receptor", "value": "> 10", "unit": "µM"},
      {"measurement": "IC50", "setting": "D2 receptor", "value": "> 10", "unit": "µM"},
      {"measurement": "Release of dopamine, substantia nigra", "setting": "[2]; 0.005 mg/kg s.c.", "value": "8.7 ± 0.13 nmol/g tissue, for 20 min"},
      {"measurement": "Release of dopamine, substantia nigra", "setting": "[2]; 0.01 mg/kg s.c., Hydrochloride", "value": "10.3 ± 0.23 nmol/g tissue, for 20 min and 10.0 ± 0.14 nmol/g tissue, for 20 min"},
      {"measurement": "Release of dopamine, substantia nigra", "setting": "[2]; 0.05 mg/kg s.c.", "value": "7.7 ± 0.15 nmol/g tissue, for 20 min"},
      {"measurement": "Release of dopamine, substantia nigra", "setting": "[2]; 0.25 mg/kg s.c.", "value": "5.2 ± 0.26 nmol/g tissue, for 20 min"},
      {"measurement": "Release of dopamine, substantia nigra", "setting": "[2]; 1.00 mg/kg s.c.", "value": "6.7 ± 0.19 nmol/g tissue, for 20 min"},
      {"measurement": "Release of dopamine, substantia nigra", "setting": "[2]; 5.00 mg/kg s.c.", "value": "5.7 ± 0.18 nmol/g tissue, for 20 min"},
      {"measurement": "Release of dopamine, tuberculum olfactorium", "setting": "[3]; 0.005 mg/kg s.c.", "value": "7.0 ± 0.25 nmol/g tissue, for 20 min"},
      {"measurement": "Release of dopamine, tuberculum olfactorium", "setting": "[3]; 0.01 mg/kg s.c., Hydrochloride", "value": "8.0 ± 0.17 nmol/g tissue, for 20 min and 5.5 ± 0.20 nmol/g tissue, for 20 min"},
      {"measurement": "Release of dopamine, tuberculum olfactorium", "setting": "[3]; 0.05 mg/kg s.c.", "value": "5.8 ± 0.19 nmol/g tissue, for 20 min"},
      {"measurement": "Release of dopamine, tuberculum olfactorium", "setting": "[3]; 0.25 mg/kg s.c.", "value": "3.5 ± 0.21 nmol/g tissue, for 20 min"},
      {"measurement": "Release of dopamine, tuberculum olfactorium", "setting": "[3]; 1.00 mg/kg s.c.", "value": "4.3 ± 0.07 nmol/g tissue, for 20 min"},
      {"measurement": "Release of dopamine, tuberculum olfactorium", "setting": "[3]; 5.00 mg/kg s.c.", "value": "4.8 ± 0.09 nmol/g tissue, for 20 min"}
    ]},
    {"smiles": "CCCNC(CCC)Cc1ccc2c(c1)OCO2.Cl", "note": "(stereo not shown) [Compound No. 27, 1-(1,3-Benzodioxol-5-yl)-2-propylaminopentane Hydrochloride]", "values": [
      {"measurement": "antagonism against the effect of tyramine", "setting": "[4]", "value": "Tyramine antagonistic property"},
      {"measurement": "Release of noradrenaline, locus coeruleus", "setting": "[1]; 0.10 mg/kg s.c.", "value": "3.8 ± 0.15 nmol/g tissue, for 20 min"},
      {"measurement": "Release of noradrenaline, locus coeruleus", "setting": "[1]; 0.25 mg/kg s.c.", "value": "3.5 ± 0.20 nmol/g tissue, for 20 min"},
      {"measurement": "Release of serotonin, raphe", "setting": "serotonin release, raphe; 0.10 mg/kg s.c.", "value": "0.399 ± 0.00 nmol/g tissue, for 20 min"},
      {"measurement": "Release of serotonin, raphe", "setting": "serotonin release, raphe; 0.25 mg/kg s.c.", "value": "0.414 ± 0.01 nmol/g tissue, for 20 min"},
      {"measurement": "Release of dopamine, substantia nigra", "setting": "[2]; 0.10 mg/kg s.c.", "value": "7.8 ± 0.44 nmol/g tissue, for 20 min"},
      {"measurement": "Release of dopamine, substantia nigra", "setting": "[2]; 0.25 mg/kg s.c.", "value": "9.5 ± 0.32 nmol/g tissue, for 20 min"},
      {"measurement": "Release of dopamine, tuberculum olfactorium", "setting": "[3]; 0.10 mg/kg s.c.", "value": "4.7 ± 0.13 nmol/g tissue, for 20 min"},
      {"measurement": "Release of dopamine, tuberculum olfactorium", "setting": "[3]; 0.25 mg/kg s.c.", "value": "5.2 ± 0.23 nmol/g tissue, for 20 min"}
    ]}
  ]
}
